Laboratory results reported in patent publication US10493087B2, “Sialylation-increasing therapies for diseases associated with oxidative stress” (THE UNITED STATES OF AMERICA, AS REPRESENTED BY THE …, priority 2015, dated 2019).

Columns and labels:
[1] = test system: heart tissue of GNE −/− mice; assay: SNA lectin staining of heart sections (sialylation status); format: in vivo; settings: ~1 year old GNE −/− mice treated since age 10 weeks with 2 g/kg/day; vs untreated GNE −/− mice
Protocol: Mouse hearts or skeletal muscle (gluteus) were harvested and fixed in 4% paraformaldehyde for 48 hours at room temperature, dehydrated in 70% ethanol at 4° C., and paraffin-embedded for sectioning (Histoserv, Gaithersburg, Md.). Tissue sections (5 um) were stained with a variety of lectins, as previously described for mouse kidneys and muscle (Kakani et al., Am J Pathol 2012; 180: 1431-40; Niethamer et al., Mol Genet Metab 2012; 107: 748-55) as well as for GNE myopathy patients' muscle (Leoyklang et al., Biomarkers Med 2014; 8: 641-52). Lectin histochemistry was performed with fluorescein isothiocyanate (FITC) labeled lectins WGA and VVA from EY Laboratories (San Mateo, Calif.) and SNA from Vector Laboratories (Burlingame, Calif.). Each slide was also stained with the nuclear dye DAPI. Fluorescence imaging of multiple sections of heart per slide was performed under a Zeiss 510 META confocal laser-scanning microscope. All fluorescent images represent collapsed stacks of confocal Z-sections, imaged at 63× magnification.

GNE myopathy mice = settings: cited from earlier work; for Prevention of muscle disease in GNE myopathy mice: prophylactic, Malicdan et al., Nature Med 2009
[2] = test system: GNE myopathy mice skeletal muscle tissue; settings: cited from earlier work; for Hyposialylation of GNE myopathy mice skeletal muscle tissue: Niethamer et al., Mol Genet Metab 2012
GNE Myopathy myotubes [3] = assay: Intracellular ROS (DCF fluorescence) in cultured myotubes; format: cell-based, mice; settings: GNE Myopathy myotubes treated with 5 mM for 72 h; mean±SEM; untreated 1113±30, littermate controls 115±15
Protocol: (§1) Cell cultures and myotubes analysis: Myocytes from Gne^−/−hGNED176V-Tg mice and littermate controls were proliferated in DMEM containing 20% fetal bovine serum and 1% chicken embryo extracts in a 5% CO2 and induced to differentiation in a serum free medium, OPTIPRO™ SFM (Gibco), to make the cells hyposialylated. Where indicated, myotubes were treated with 5 mM NeuAc (Japan Food and Liquor Alliance) or 5 mM NAC (Sigma) for 72 h.
For the analysis of intracellular ROS, a popular fluorescence-based probe, 2′,7′-dichlorodihydrofluorescein diacetate (DCFH-DA) (Wang et al., Free Radical Biology and Medicine. 1999; 27:612-616; Halliwell and Whiteman, Br J Pharmacol. 2004; 142:231-255) was used. Cells were loaded with 5 μM DCFH-DA (Invitrogen) in PBS for an hour and recovered with phenol red-free DMEM (Gibco) for 30 min at 37° C. in a 5% CO2 incubator. Then the cells were placed in a CYTOFLUOR® Series 4000 multi-well fluorescence plate reader (PerSeptive Biosystems) with temperature maintained at 37° C. The excitation filter was set at 485 nm and the emission filter was set at 530 nm. The fluorescence from each well was captured and recorded.

GNE Myopathy myotubes [4] = assay: Cell viability assay under pro-oxidants (propidium iodide/Hoechst co-staining); format: cell-based, mice; settings: treated GNE Myopathy myotubes vs untreated; same concentrations of H2O2 or menadione
Protocol: as §1
For the cell viability assay, myotubes were exposed to H2O2 for 24 h and to menadione for 6 h before staining. Nuclear staining with Hoechst 33342 (Thermo Scientific) and propidium iodide (PI) (Dojindo) was used for morphological assessment of apoptosis by fluorescence microscopy (Lee and Shacter, Journal of Biological Chemistry. 1999; 274:19792-19798). Minimum 200 nuclei were counted and cell viability was calculated by the exclusion of PI-stained nuclei from Hoechst 33342-stained nuclei.

GNE Myopathy myotubes [5] = assay: ROS generation under pro-oxidants (H2O2 or menadione), ΔDCF fluorescence; format: cell-based, mice; settings: GNE Myopathy myotubes incubated before and during exposure to H2O2 and menadione; vs untreated; p<0.01
Protocol: as §1
To evaluate the ROS generation under pro-oxidants, myotubes cultured in each condition were loaded with 5 μM DCFH-DA for 1 h and recovered in the different concentrations of H2O2 or menadione-containing medium. After 30 min incubation in dark at 37° C., the microplate containing cells with pro-oxidants were placed in a plate reader and fluorescence was captured at every 5 min until it reached a plateau. Maximum fluorescence of each well was used for analysis.

| Compound | Sialylation of glycans in heart tissue (SNA lectin staining) [1] | Prevention of muscle disease in GNE myopathy mice (GNE myopathy mice) | Hyposialylation of GNE myopathy mice skeletal muscle tissue [2] | Sialylation status of skeletal muscle (SNA and VVA signal) ([2]; oral 1 g/kg/day for 12 weeks, gastrocnemius, adapted from Niethamer et al., 2012) | Muscle force generation in treated mice (GNE myopathy mice; sialic acid supplement, Malicdan et al. 2009, 2008) | Mean DCF fluorescence (intracellular ROS generation) (GNE Myopathy myotubes [3]) [AFU] | Relative cell viability under pro-oxidants (GNE Myopathy myotubes [4]) | ΔDCF fluorescence increments on exposure to pro-oxidants (GNE Myopathy myotubes [5]) |
| --- | --- | --- | --- | --- | --- | --- | --- | --- |
| CC(=O)NC1C(O)[C@H](O)C(CO)O[C@H]1O (stereo partly shown) [ManNAc, N-acetyl mannosamine] | significantly increased sialylation | prophylactically prevent muscle disease | rescue hyposialylation | restored the sialylation status back to the normal range | – | – | – | – |
| CC(=O)N[C@H]1[C@H]([C@H](O)[C@H](O)CO)OC(O)(C(=O)O)C[C@@H]1O (stereo partly shown) [NeuAc, N-acetyl neuraminic acid] | significantly increased sialylation | prophylactically prevent muscle disease | rescue hyposialylation | – | increased in proportion to muscle fiber diameter | 349±19 | more resistant | significantly decreased |
| N[C@@H]1C(O)O[C@H](CO)[C@@H](O)[C@@H]1O (stereo partly shown) [mannosamine] | – | – | rescue hyposialylation | – | – | – | – | – |
| sialyllactose | – | prophylactically prevent muscle disease | – | – | – | – | – | – |
